Source: PubChem BioAssay AID1963834 (Molecular Pharmacology Branch, DTP, NCI, 2024)
Values joined by “and” are separate entries in the source; they are usually repeats but may differ in a detail not shown here. Equal entries are not always repeated.

Tested on: 873145-292-R-J1-PDC complex spheroid viability
Test: Anticancer human tumor 873145-292-R-J1-PDC patient-derived renal clear cell carcinoma cell line growth inhibition [POLQ]
Conditions: for viability, T/C: stronger effect = lower value
Method: Multicellular complex tumor spheroid response to Polymerase (POL) inhibitors (novobiocin, ART-558, RP6685) in combination with a variety of drugs and investigational agents in selected tumor cell lines
The POL inhibitors (novobiocin, ART-558, and RP6685) were evaluated both individually and in combination with standard of care and investigational anticancer small molecules within a complex spheroid model of solid tumors. . Complex spheroids include a stromal component modeled by human endothelial cells (HUVEC) and fibroblasts modeled by human mesenchymal stem cells (MSCs). The concentration ranges selected for each drug and investigational agent were based upon clinically achievable concentrations if the clinical Cmax of the agent was known.
Compounds. The drugs and investigational agents: novobiocin (NSC847541), ART-558 (NSC835418), RP-6685 (NSC848927), peposertib (NSC802822), ceralasertib (NSC780249), elimusertib (NSC800525), camonsertib (NSC841442), AZD-1390 (NSC803789), olaparib (NSC753686), talazoparib (NSC767125), rucaparib (NSC756644), sotorasib (NSC818433), MRTX-1133 (NSC836407), SN-38 (NSC673596), topotecan (NSC609699), epotoside (NSC141540), doxorubicin (NSC123127), gemcitabine (NSC613327), 5-fluorouracil (NSC19893), paclitaxel (NSC125973), vemurafenib (NSC761431), MSA-2 (NSC828583), SN-011 (NSC837082), adavosertib (NSC754352), prexasertib (NSC758257), carboplatin (NSC241240) and oxaliplatin (NSC266046), were obtained from the National Cancer Institute (NCI) Developmental Therapeutics Program Chemical Repository (21). The FDA-approved anticancer drug set is available from the Developmental Therapeutics Program at https://dtp.cancer.gov/organization/dscb/obtaining/. […] The stock solutions were prepared in dimethyl sulfoxide (DMSO, Sigma-Aldrich, St. Louis, MO, cat. D2650), except for the platinum compounds which were prepared in saline (Quality Biological, Gaithersburg, MD, cat. 114-055-101), at 800-fold the tested concentration and stored at -70 degrees C prior to their use. All drugs and investigational agents were tested over a range starting from a high concentration at or near the clinical Cmax and decreasing in half-log increments. If the clinical Cmax for an agent had not been determined, the highest concentration tested was 10 microM, except for SN-38, which was tested at a high concentration of 1 microM.
Cell Culture. All cells were maintained in an incubator at 37 degrees C and 5% CO2 with 95% humidity. The PDC lines were cultured according to standard operating procedures established by the NCI PDMR (https://pdmr.cancer.gov). Table 3 of the manuscript, lists the cell lines along with the number of the three cell types plated to form the mct-spheroids and media for tumor cell growth. After thawing, all PDC lines, except 997537-175-T-J1-PDC and 415267-285-R-J2-PDC, were cultured in Matrigel-coated flasks prepared with a working solution of 1X Ham's F-12 nutrient mix, without supplementation (Thermo Fisher Scientific, cat. 11765054), 100 U/mL penicillin-streptomycin (Thermo Fisher Scientific, cat. 15140122), and 2.5% Matrigel (Corning Inc., Corning, NY, cat. 354248) for the first three passages. The two PDC lines 997537-175-T-J1-PDC and 415267-285-R-J2-PDC were cultured on uncoated flasks. The 857933-349-R-J2-PDC line was cultured in 6C/Colon 1B media containing advanced DMEM/F-12 (Thermo Fisher Scientific, cat. 12634028), 10 mM HEPES (Thermo Fisher Scientific, cat. 15630080), 1X GlutaMAX supplement (Thermo Fisher Scientific, cat. 35050061), 0.1 mg/mL primocin (InvivoGen, San Diego, CA, cat. ant-pm-2), 10% defined fetal bovine serum, heat inactivated (HyClone Laboratories Inc., Logan, UT, cat. SH30070.03HI), 50% L-WRN conditioned media (ATCC, cat. CRL-3276), 1.25 mM N-Acetyl-L-cysteine (Sigma-Aldrich, cat. A9165), 10 mM nicotinamide (Sigma-Aldrich, cat. N0636), 1X B-27 supplement (Thermo Fisher Scientific, cat. 17504044), 1X N-2 supplement (Thermo Fisher Scientific, cat. […]

[1] = compound alone, run of 01/08/2024
[2] = compound alone, run of 01/19/2024
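Also: spheroids exposed to compounds for 7 days before viability readout.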
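For viability, T/C in this document: luminescence signal used as surrogate for viable cell content; 100% = DMSO vehicle control viability.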

| SMILES | viability, T/C (compound 0.0316 µM) | viability, T/C (compound 0.1 µM) | viability, T/C (compound 0.316 µM) | viability, T/C (compound 1 µM) | viability, T/C (compound 3.16 µM) | viability, T/C (compound 10 µM) | IC50 (curve of compound) | IC50 [1] [µM] | viability, T/C (compound 0.00316 µM) | viability, T/C (compound 0.01 µM) | IC50 [2] [µM] | viability, T/C (compound 0.000316 µM) | viability, T/C (compound 0.001 µM) |
| --- | --- | --- | --- | --- | --- | --- | --- | --- | --- | --- | --- | --- | --- |
| CNCc1ccc(-c2[nH]c3cc(F)cc4c3c2CCNC4=O)cc1 | 108% and 93.3% and 101% | 101% and 96% and 102% | 102% and 103% and 97.2% | 103% and 91.5% and 93.2% | 94.7% and 95.1% and 93.3% | 99.7% and 98% and 92.6% | > 10 µM | – | – | – | – | – | – |
| COC1C(OC(N)=O)C(O)C(Oc2ccc3c(O)c(NC(=O)c4ccc(O)c(CC=C(C)C)c4)c(=O)oc3c2C)OC1(C)C (configuration not stated) | 93.7% [middle of 13 runs] | – | 102% [middle of 13 runs] | 99.8% [middle of 13 runs] | 102% [middle of 13 runs] | 98.3% [middle of 13 runs] | – | > 10 | – | – | – | – | – |
| COc1cc(C2c3cc4c(cc3C(OC3OC5COC(C)OC5C(O)C3O)C3COC(=O)C23)OCO4)cc(OC)c1O (configuration not stated) | 95.1% and 110% and 113% | 94.9% and 101% and 95.3% | 98.2% and 106% and 94.5% | 95.1% and 95.9% and 102% | 67% and 80.8% and 85.2% | 56.9% and 68.2% and 66% | > 10 µM | – | – | – | – | – | – |
| COc1cc2cc(C(=O)CCC(=O)O)sc2cc1OC | 112% and 99.5% and 94.5% | 107% and 103% and 89.5% | 96.3% and 97.8% and 104% | 101% and 96.7% and 102% | 98.9% and 105% (2×) | 99.8% and 101% and 109% | > 10 µM | – | – | – | – | – | – |
| COc1ccc([C@@H](O)c2cc(-c3ncnc4cc(N5CCOCC5)ccc34)c(F)cc2Cl)nn1 | 70.5% and 97.3% and 103% | 85% and 91.1% and 92.7% | 86.9% and 84.3% and 87% | 66.4% and 79.4% and 67.4% | 56.9% and 52.8% and 57% | 42.3% and 49.3% and 41.6% | 5.01 µM and 7.26 µM and 5.06 µM | – | – | – | – | – | – |
| COc1cccc(OCCCN)c1-c1cc(Nc2cnc(C#N)cn2)n[nH]1 | 68.6% and 71.2% and 98.3% | 60.8% and 74% and 71.8% | 63.5% and 75.3% and 79.5% | 72.4% and 84.5% and 73.1% | – | – | > 1 µM | – | 103% and 116% and 101% | 89.6% and 98.2% and 94.2% | – | – | – |
| COc1cccc2c1C(=O)c1c(O)c3c(c(O)c1C2=O)CC(O)(C(=O)CO)CC3OC1CC(N)C(O)C(C)O1 (configuration not stated) | 79.5% and 101% and 88.3% | 68.8% and 87.2% and 90.1% | 70.1% and 92.2% and 85.7% | 68.8% and 84.2% and 79.3% | 3.4% and 5.11% and 4.22% | 2.7% and 3.08% and 3.02% | 1.39 µM and 1.65 µM and 1.57 µM | – | – | – | – | – | – |
| Cc1cccc(N(C)C(=O)C2C(O)CCN2c2nc(C)cc(C(F)(F)F)c2C#N)c1 (configuration not stated) | 93.4% [middle of 13 runs] | 97.4% [middle of 13 runs] | 98.9% [middle of 13 runs] | 99.9% [middle of 13 runs] | 99.1% [middle of 13 runs] | 95.5% [middle of 11 runs] | – | > 10 | – | – | > 10 | – | – |
| Cn1ncnc1[C@H]1c2n[nH]c(=O)c3cc(F)cc(c23)N[C@@H]1c1ccc(F)cc1 | 108% and 102% and 94.4% | 101% and 97.9% and 88.9% | – | – | – | – | > 0.1 µM | – | 91.2% and 96.3% and 103% | 107% and 97.5% and 102% | – | 99.5% and 108% and 99.7% | 102% and 92.8% and 98% |
| Nc1ccc(C#CCN(C(=O)Cc2ncc(C(F)(F)F)cc2C(F)(F)F)c2ccc(F)cc2)nn1 | – | 101% [middle of 13 runs] | 101% [middle of 13 runs] | 95.2% [middle of 13 runs] | 103% [middle of 13 runs] | 108% [middle of 13 runs] | – | – | – | – | > 10 | – | – |
| Nc1ccn(C2OC(CO)C(O)C2(F)F)c(=O)n1 (configuration not stated) | 64.3% and 74.6% and 56.8% | 55.4% and 57.4% and 46.8% | 50.4% and 59.5% and 57.8% | 58.3% and 53% and 55.6% | 55.6% and 60% and 51.4% | 49.7% and 56.7% and 41.6% | > 10 µM and 1.86 µM | – | – | – | – | – | – |
| O=C(Nc1ccc(O)c(NS(=O)(=O)c2ccc(F)cc2)c1)c1ccc(-c2ccccc2)cc1 | 115% and 109% and 103% | 97.8% and 105% and 91.7% | 113% and 107% and 99.3% | 105% and 99.7% and 101% | 105% (2×) and 108% | 104% and 99.2% and 98.4% | > 10 µM | – | – | – | – | – | – |
| O=C(c1cc(Cc2n[nH]c(=O)c3ccccc23)ccc1F)N1CCN(C(=O)C2CC2)CC1 | 99.8% and 99.5% and 107% | 96.2% and 91.1% and 106% | 91.9% and 115% and 107% | 104% and 97.4% (2×) | 98.6% and 112% and 104% | 91.7% and 95.1% and 102% | > 10 µM | – | – | – | – | – | – |
| O=c1[nH]cc(F)c(=O)[nH]1 | 90.7% and 101% and 99.7% | 98.1% and 101% and 92.8% | 93.2% and 92.1% and 94.4% | 99.2% and 101% and 92% | 107% and 102% and 96.4% | 99.7% and 106% and 94.3% | > 10 µM | – | – | – | – | – | – |
